Values of other authors as cited in patent publication US20220023314A1, “STABLE FORMULATIONS OF ANESTHETICS AND […] FORMS” (HALO SCIENCE LLC, priority 2018, published 2022).

Conditions: in vivo

C[C@]12CC[C@@H](O)C[C@@H]1CC[C@H]1[C@@H]3CC[C@H](C(=O)CO)[C@@]3(C)CC(=O)[C@@H]12 [Alphadolone]
potency relative to alphaxalone: half as potent
